Starred links: 1 amine or outer side, 2 acyl side, 3 side chain; linkers in the order of their positions; H or OH if unused. Positions of bridges follow the written chain, without caps; N, C: chain ends. Non-standard residues stand in square brackets, D forms with d. Residues, ends and D or L forms follow the SMILES beside them. Leu(3R-O(AcLeu(3R-OH))) = CC(=O)N[C@H](C(=O)O[C@H](C(C)C)[C@H](N)C(=O)O)[C@H](O)C(C)C; X1 = CO[C@H](C)C(C(=O)[*:2])N(C)[*:1]; dPhLac = O=C(O)[C@H](O)Cc1ccccc1; NMeA = CN[C@@H](C)C(=O)O; NMeDha = C=C(NC)C(=O)O
How the values were obtained:
[1] = tested on: methacholine-induced airway contraction; test: Inhibitory action of intratracheal administration on the methacholine-induced airway contraction; format: in vivo, SD male rats; details: rats; for airway contraction inhibitory rate: 1 hour before methacholine 30 μg/kg i.v., vs saline group
Description: SD male rats (Charles River Laboratories Japan, Inc.) were used in experiments. Urethane (1.2 g/kg) was administered intraperitoneally to the rats for anesthesia. Using a metal canula for intratracheal administration, test compounds (0.3, 1, and 3 μg/kg) or physiological saline was administered intratracheally (3 or 4 animals) at a volume of 0.5 mL/kg. Cannulation for intravenous administration was carried out in the external jugular vein of the rats. A tracheostomy cannula was inserted through an incision in the trachea and mechanical ventilation (10 mL/kg, 90 times/min) was carried out using a Breathing Analysis Computer System (flexiVent, SCIREQ Inc.). The mechanical ventilator circuit was connected with a pressure transducer (TP-400T, Nihon Kohden Corporation) and the change in airway pressure was measured. The airway pressure signal was amplified with a strain pressure amplifier (AP-601G, Nihon Kohden Corporation) and recorded on chart paper by a thermal pen recorder (WT-685G, Nihon Kohden Corporation, or LINEARCORDER F WR3701, Graphtec). The body temperature of the rats was maintained at 37° C. using a body temperature-maintaining device (BWT-100, Bio Research
Center). At 1 hour after intratracheal administration of the test compound, a solution of acetyl-β-methacholine chloride in physiological saline (30 μg/kg, acetylcholine β-methacholine chloride=manufactured by SIGMA Co.) was administered intravenously to induce the airway contraction response. The airway contraction inhibitory rate of the test compound was calculated by comparing the airway pressure increase rate (%) with one obtained by intratracheal administration of physiological saline, and ED50 values were determined.

[2] = tested on: LTD4-induced airway contraction; test: Action on the LTD4-induced airway contraction response by intratracheal administration; format: in vivo, Hartley male guinea pigs; details: guinea pigs
Description: Hartley male guinea pigs (Japan SLC, Inc.) were used in experiments. Urethane (1.2 g/kg) was administered intraperitoneally to the guinea pigs for anesthesia. Using needles (30 G), the test compounds (0.3, 1, and 3 μg/kg) at a volume of 0.5 mL/kg or physiological saline was administered by intratracheal injection (3 animals in each group). Cannulation for intravenous administration was carried out in the external jugular vein of the guinea pigs. A tracheostomy cannula was inserted through an incision in the trachea and mechanical ventilation (10 mL/kg, 60 times/min) was carried out using a mechanical ventilator (MODEL683, HARVARD). The mechanical ventilator circuit was connected with a pressure transducer (TP-400T, Nihon Kohden Corporation) and the change in airway pressure was measured. The airway pressure signal was amplified with a strain pressure amplifier (AP-601G, Nihon Kohden Corporation) and recorded on chart paper by a thermal pen recorder (LINEARCORDER F WR3701, Graphtec). The body temperature of the guinea pigs was maintained at 37° C. using a body temperature-maintaining device (BWT-100, Bio Research Center). At 30 minutes after injection by intratracheal administration of the test compound, a solution of LTD4 in physiological saline (0.3 μg/kg) was administered intravenously to induce the airway contraction response.

carotid artery pressure = test: Action on the carotid pressure by intratracheal administration; format: in vivo, SD male rats; details: rats
Description: SD male rats (Charles River Laboratories Japan, Inc.) were used in experiments. Urethane (1.2 g/kg) was administered intraperitoneally to the rats for anesthesia. Cannulation for […] was carried out in the carotid artery and a pressure transducer (TP-400T, Nihon Kohden Corporation) was connected. The cannula for measuring blood pressure and a pressure transducer were filled with 5% heparin physiological saline. The pressure signal was amplified with a strain pressure amplifier (AP-601G, Nihon Kohden Corporation) and recorded on chart paper by a thermal pen recorder (WT-685G, Nihon Kohden Corporation). The body temperature of the rats was maintained at 37° C. using a body temperature-maintaining device (BWT-100, Bio Research Center). The trachea was exposed, and using needles (27 G), the test compounds (30 or 100 μg/kg) at a volume of 0.5 mL/kg or physiological saline was administered by direct intratracheal injection. For the group administered with 30 μg/kg, 5 animals were used, for the group administered with 100 μg/kg, 1 animal was used, and for the group administered with physiological saline, 3 animals were used. For 30 minutes after intratracheal administration, a mean blood pressure was measured.

[3] = tested on: tobacco smoke inhalation-induced airway inflammation; test: Action of nasal drop administration on the tobacco smoke inhalation-induced airway inflammation; format: in vivo, BALB/c male mice; details: mice, nasal drop 1, 10 and 100 μg/kg once a day; bronchoalveolar lavage cell count at Day 11
Description: BALB/c male mice (Charles River Laboratories Japan, Inc.) were used in experiments. Sodium pentobarbital (40 mg/kg) was administered intraperitoneally to the mice for anesthesia. During a period of time ranging from Day 0 to Day 10 (except for Days 5 and 6), the test compound (1, 10, and 100 μg/kg) were administered nasally to the mice once a day. The Vehicle group was similarly injected with physiological saline by nasal drop administration. There were 10 animals in each group. The mice were put into chambers at 1 hour after nasal drop administration, and using a tobacco smoke generator (SG-200, Sibata Scientific Technology Ltd.), the tobacco smoke was inhaled to a concentration in air up to 4% for 1 hour. After intraperitoneal administration of sodium pentobarbital (80 mg/kg) to the mice at Day 11, the mice were subject to blood removal to be euthanized. After respiratory arrest, the trachea was incised, bronchoalveolar lavage was performed with PBS(−) 0.5 mL×3 times, and the washing liquid was collected. The supernatant was removed by centrifugation, the cells were then resuspended in PBS(−), and for white blood cells (WBC), neutrophils (NEUT), lymphocytes (LYMPH), macrophages (MONO), and eosinophils (EO), the cell count was measured with a Multiple Parameter Automatic Hematology Analyzer (XT-2000i, Sysmex Corporation).

[4] = tested on: human platelet aggregation caused by ADP; details: Patent Citation 1, Non-Patent Citation 1; cited from earlier work
[5] = intratracheal 100 μg/kg, 1 animal

C=C1C(=O)N[C@@H](C)C(=O)N(C)[C@@H](C)C(=O)N[C@@H]([C@H](OC(=O)[C@@H](NC(C)=O)[C@H](O)C(C)C)C(C)C)C(=O)N(C)C([C@@H](C)OC)C(=O)O[C@H](C)[C@H](NC(C)=O)C(=O)O[C@H](Cc2ccccc2)C(=O)N1C (stereo partly drawn) [Ref 1] (Ac-T[dPhLac][NMeDha]A[NMeA][Leu(3R-O(AcLeu(3R-OH)))][X1]; ester 1-C)
ED50 ([1]; Rattus norvegicus, intratracheal, calculated from three points, read-out: ED50 value of inhibition of methacholine-induced airway contraction): 0.73 µg/kg | airway contraction inhibitory rate ([1]; intratracheal 0.3 μg/kg): 32% | airway contraction inhibitory rate ([1]; intratracheal 1 μg/kg): 45% | airway contraction inhibitory rate ([1]; intratracheal 3 μg/kg): 98% | ED50 ([2]; Cavia porcellus, iv, intratracheal, 30 minutes before LTD4 0.3 μg/kg i.v., read-out: ED50 value of inhibition of LTD4-induced airway contraction): 1.1 µg/kg | LTD4-induced airway contraction response ([2]; intratracheal administration): inhibited | amount having no action on the carotid artery pressure (carotid artery pressure; intratracheal): at least 30 μg/kg | Reduction in blood pressure After 10 min (carotid artery pressure; intratracheal 30 μg/kg): 7±5.2 mmHg | Reduction in blood pressure Max in 30 min (carotid artery pressure; intratracheal 30 μg/kg): 22±3.3 mmHg | reduction in blood pressure compared with physiological saline group (carotid artery pressure; intratracheal 30 μg/kg): no significant difference | reduction in blood pressure (in words) (carotid artery pressure; intratracheal 100 μg/kg): remarkable reduction in blood pressure | Reduction in blood pressure After 10 min (carotid artery pressure; [5]): 65 mmHg | Reduction in blood pressure Max in 30 min (carotid artery pressure; [5]): 95 mmHg | gap between maximum amount having no action on carotid artery pressure and ED50 of inhibitory action on airway contraction (carotid artery pressure; intratracheal, 30 μg/kg vs 0.73 μg/kg): at least 40 times | infiltration of eosinophils into the airway [3]: significantly inhibited | infiltration of lymphocytes into the airway [3]: significantly inhibited | infiltration of neutrophils into the airway [3]: significantly inhibited | human platelet aggregation caused by ADP [4]: inhibits

— patent US20110207655A1, “CYCLIC DEPSIPEPTIDE COMPOUND AND USE THEREOF” (Astellas Pharma Inc., priority 2008, published 2011)
